Patent US8765940B2 (priority 2009, dated 2014)

Biological target: PI3Kδ (Homo sapiens (Human), UniProt O00329)
Format: biochemical
Details: PI3Kδ Alphascreen assay
Protocol: A PI3K Alphascreen® assay (PerkinElmer, Waltham, Mass.) was used to measure the activity of a panel of four phosphoinositide 3-kinases: PI3Kα, PI3Kβ, PI3Kγ, and PI3Kδ. Enzyme reaction buffer was prepared using sterile water (Baxter, Deerfield, Ill.) and 50 mM Tris HCl pH 7, 14 mM MgCl2, 2 mM sodium cholate, and 100 mM NaCl. 2 mM DTT was added fresh the day of the experiment. The Alphascreen buffer was made using sterile water and 10 mM Tris HCl pH 7.5, 150 mM NaCl, 0.10% Tween 20, and 30 mM EDTA. 1 mM DTT was added fresh the day of the experiment. Compound source plates used for this assay were 384-well Greiner clear polypropylene plates containing test compounds at 5 mM and diluted 1:2 over 22 concentrations. Columns 23 and 24 contained only DMSO as these wells comprised the positive and negative controls, respectively. Source plates were replicated by transferring 0.5 uL per well into 384-well Optiplates (PerkinElmer, Waltham, Mass.).
Each PI3K isoform was diluted in enzyme reaction buffer to 2× working stocks. PI3Kα was diluted to 1.6 nM, PI3Kβ was diluted to 0.8 nM, PI3Kγ was diluted to 15 nM, and PI3Kδ was diluted to 1.6 nM. PI(4,5)P2 (Echelon Biosciences, Salt Lake City, Utah) was diluted to 10 μM and ATP was diluted to 20 μM. This 2× stock was used in the assays for PI3Kα and PI3Kβ. For assay of PI3Kγ and PI3Kδ, PI(4,5)P2 was diluted to 10 μM and ATP was diluted to 8 μM to prepare a similar 2× working stock. Alphascreen reaction solutions were made using beads from the anti-GST Alphascreen kit (PerkinElmer, Waltham, Mass.). Two 4× working stocks of the Alphascreen reagents were made in Alphascreen reaction buffer. In one stock, biotinylated-IP4 (Echelon Biosciences, Salt Lake City, Utah) was diluted to 40 nM and streptavadin-donor beads were diluted to 80 μg/mL. In the second stock, PIP3-binding protein (Echelon Biosciences, Salt Lake City, Utah) was diluted to 40 nM and anti-GST-acceptor beads were diluted to 80 μg/mL.
Using a 384-well Multidrop (Titertek, Huntsville, Ala.), 10 μL/well of 2× enzyme stock was added to columns 1-24 of the assay plates for each isoform. 10 μL/well of the appropriate substrate 2× stock (containing 20 μM ATP for the PI3Kα and β assays and containing 8 μM ATP for the PI3Kγ and δ assays) was then added to Columns 1-24 of all plates. Plates were then incubated at room temperature for 20 minutes. In the dark, 10 μL/well of the donor bead solution was added to columns 1-24 of the plates to quench the enzyme reaction. The plates were incubated at room temperature for 30 minutes. Still in the dark, 10 μL/well of the acceptor bead solution was added to columns 1-24 of the plates. The plates were then incubated in the dark for 1.5 hours. The plates were read on an Envision multimode Plate Reader (PerkinElmer, Waltham, Mass.) using a 680 nm excitation filter and a 520-620 nm emission filter.

Chain of PI3Kδ (O00329 whole entry): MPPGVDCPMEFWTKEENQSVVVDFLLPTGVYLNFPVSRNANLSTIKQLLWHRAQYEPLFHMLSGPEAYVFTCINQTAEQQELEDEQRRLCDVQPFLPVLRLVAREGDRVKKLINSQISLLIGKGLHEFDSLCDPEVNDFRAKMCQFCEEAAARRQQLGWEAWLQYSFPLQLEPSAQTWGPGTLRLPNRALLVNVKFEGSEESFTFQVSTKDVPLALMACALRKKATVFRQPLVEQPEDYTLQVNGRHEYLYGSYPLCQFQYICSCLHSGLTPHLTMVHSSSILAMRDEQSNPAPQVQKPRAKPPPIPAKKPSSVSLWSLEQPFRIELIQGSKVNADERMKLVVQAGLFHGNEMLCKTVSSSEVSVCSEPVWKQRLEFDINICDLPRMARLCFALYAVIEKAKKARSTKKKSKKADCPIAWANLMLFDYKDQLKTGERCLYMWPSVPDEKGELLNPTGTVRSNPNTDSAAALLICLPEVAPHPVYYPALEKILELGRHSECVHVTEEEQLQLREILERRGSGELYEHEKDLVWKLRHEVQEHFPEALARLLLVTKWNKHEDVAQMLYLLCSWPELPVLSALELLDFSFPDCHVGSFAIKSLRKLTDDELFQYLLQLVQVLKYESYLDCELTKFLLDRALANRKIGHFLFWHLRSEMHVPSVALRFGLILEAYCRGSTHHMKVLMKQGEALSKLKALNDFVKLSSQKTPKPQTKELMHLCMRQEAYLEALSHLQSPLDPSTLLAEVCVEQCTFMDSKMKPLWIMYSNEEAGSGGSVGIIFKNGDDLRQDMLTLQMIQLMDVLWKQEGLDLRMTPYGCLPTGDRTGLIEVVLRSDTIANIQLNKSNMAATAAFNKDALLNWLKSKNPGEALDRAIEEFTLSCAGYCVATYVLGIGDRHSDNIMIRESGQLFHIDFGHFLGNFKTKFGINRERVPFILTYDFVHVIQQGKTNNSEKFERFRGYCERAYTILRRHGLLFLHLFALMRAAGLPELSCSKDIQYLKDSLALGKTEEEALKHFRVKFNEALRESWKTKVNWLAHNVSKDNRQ
Chain of PI3Kδ (P27986 whole entry partner): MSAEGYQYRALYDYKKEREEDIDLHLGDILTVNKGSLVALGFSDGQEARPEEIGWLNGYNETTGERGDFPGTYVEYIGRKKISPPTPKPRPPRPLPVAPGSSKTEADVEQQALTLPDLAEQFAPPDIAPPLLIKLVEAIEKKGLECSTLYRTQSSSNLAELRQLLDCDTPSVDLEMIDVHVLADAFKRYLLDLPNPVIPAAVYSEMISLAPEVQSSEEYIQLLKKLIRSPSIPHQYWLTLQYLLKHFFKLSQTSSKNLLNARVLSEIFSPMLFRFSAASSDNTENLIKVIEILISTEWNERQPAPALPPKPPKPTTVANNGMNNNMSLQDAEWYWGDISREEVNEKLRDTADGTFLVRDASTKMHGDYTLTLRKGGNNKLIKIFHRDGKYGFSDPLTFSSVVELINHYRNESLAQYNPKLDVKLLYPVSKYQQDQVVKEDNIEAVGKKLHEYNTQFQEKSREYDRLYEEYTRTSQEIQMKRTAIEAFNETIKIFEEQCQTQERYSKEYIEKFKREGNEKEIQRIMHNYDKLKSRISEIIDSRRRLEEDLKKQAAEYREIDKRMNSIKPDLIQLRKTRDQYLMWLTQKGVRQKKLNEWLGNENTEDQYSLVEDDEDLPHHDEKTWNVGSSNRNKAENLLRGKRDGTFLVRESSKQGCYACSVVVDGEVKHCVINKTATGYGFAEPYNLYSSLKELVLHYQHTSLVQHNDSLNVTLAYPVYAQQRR

| Compound | Ki |
| --- | --- |
| Cc1c(-c2ccccn2)nc2c(F)cccc2c1N1CC(C)(C)c2ccc(N3CCOCC3)cc21 [4-(3,3-dimethyl-6-(4-morpholinyl)-2,3-dihydro-1H-indol-1-yl)-8-fluoro-3-methyl-2-(2-pyridinyl)quinoline] | 93.7 nM |
| Cc1cc(C)cc(-c2nc3cc(F)ccc3c(N3CC(C)(C)c4ncc(N5CCOCC5)cc43)c2C)c1 [4-(3,3-dimethyl-6-(4-morpholinyl)-2,3-dihydro-1H-pyrrolo[3,2-b]pyridin-1-yl)-2-(3,5-dimethylphenyl)-7-fluoro-3-methylquinoline] | 15.6 nM |
| Cc1c(-c2cccc(F)c2)nc2ncccc2c1N1CC(C)(C)c2ncc(N3CCOCC3)cc21 [4-(3,3-dimethyl-6-(4-morpholinyl)-2,3-dihydro-1H-pyrrolo[3,2-b]pyridin-1-yl)-2-(3-fluorophenyl)-3-methyl-1,8-naphthyridine] | 5.38 nM |
| Cc1c(-c2cncc(F)c2)nc2cnccc2c1N1CC(C)(C)c2ncc(N3CCOCC3)cc21 [4-(3,3-dimethyl-6-(4-morpholinyl)-2,3-dihydro-1H-pyrrolo[3,2-b]pyridin-1-yl)-2-(5-fluoro-3-pyridinyl)-3-methyl-1,7-naphthyridine] | 7.75 nM |
| Cc1ccnc(-c2nc3cnccc3c(N3CC(C)(C)c4ncc(N5CCOCC5)cc43)c2C)c1 [4-(3,3-dimethyl-6-(4-morpholinyl)-2,3-dihydro-1H-pyrrolo[3,2-b]pyridin-1-yl)-3-methyl-2-(4-methyl-2-pyridinyl)-1,7-naphthyridine] | 5.37 nM |
| Cc1c(-c2cccc3[nH]ccc23)nc2cc(F)cc(F)c2c1N1CC(C)(C)c2ncc(N3CCOCC3)cc21 [4-(3,3-dimethyl-6-(4-morpholinyl)-2,3-dihydro-1H-pyrrolo[3,2-b]pyridin-1-yl)-5,7-difluoro-2-(1H-indol-4-yl)-3-methylquinoline] | 2.77 nM |
| Cc1c(Cc2cccc(F)c2)nc2cc(F)cc(F)c2c1N1CC(C)(C)c2ncc(N3CCOCC3)cc21 [4-(3,3-dimethyl-6-(4-morpholinyl)-2,3-dihydro-1H-pyrrolo[3,2-b]pyridin-1-yl)-5,7-difluoro-2-(3-fluorobenzyl)-3-methylquinoline] | 2.87 nM |
| Cc1c(-c2cncc(F)c2)nc2cc(F)cc(F)c2c1N1CC(C)(C)c2ncc(N3CCOCC3)cc21 [4-(3,3-dimethyl-6-(4-morpholinyl)-2,3-dihydro-1H-pyrrolo[3,2-b]pyridin-1-yl)-5,7-difluoro-2-(5-fluoro-3-pyridinyl)-3-methylquinoline] | 5.21 nM |
| Cc1c(-c2ccc3c(ccn3C)c2)nc2cc(F)cc(F)c2c1N1CC(C)(C)c2ncc(N3CCOCC3)cc21 [4-(3,3-dimethyl-6-(4-morpholinyl)-2,3-dihydro-1H-pyrrolo[3,2-b]pyridin-1-yl)-5,7-difluoro-3-methyl-2-(1-methyl-1H-indol-5-yl)quinoline] | 195 nM |
| Cc1c(-c2cccc3ccccc23)nc2cc(F)cc(F)c2c1N1CC(C)(C)c2ncc(N3CCOCC3)cc21 [4-(3,3-dimethyl-6-(4-morpholinyl)-2,3-dihydro-1H-pyrrolo[3,2-b]pyridin-1-yl)-5,7-difluoro-3-methyl-2-(1-naphthalenyl)quinoline] | 230 nM |
| Cc1c(C2(c3ccccc3)CC2)nc2cc(F)cc(F)c2c1N1CC(C)(C)c2ncc(N3CCOCC3)cc21 [4-(3,3-dimethyl-6-(4-morpholinyl)-2,3-dihydro-1H-pyrrolo[3,2-b]pyridin-1-yl)-5,7-difluoro-3-methyl-2-(1-phenylcyclopropyl)quinoline] | 21.8 nM |
| C=C(c1ccccc1)c1nc2cc(F)cc(F)c2c(N2CC(C)(C)c3ncc(N4CCOCC4)cc32)c1C [4-(3,3-dimethyl-6-(4-morpholinyl)-2,3-dihydro-1H-pyrrolo[3,2-b]pyridin-1-yl)-5,7-difluoro-3-methyl-2-(1-phenylethenyl)quinoline] | 2.9 nM |
| Cc1c(CCc2ccccc2)nc2cc(F)cc(F)c2c1N1CC(C)(C)c2ncc(N3CCOCC3)cc21 [4-(3,3-dimethyl-6-(4-morpholinyl)-2,3-dihydro-1H-pyrrolo[3,2-b]pyridin-1-yl)-5,7-difluoro-3-methyl-2-(2-phenylethyl)quinoline] | 8.12 nM |
